From patent US8778871B2 (Takeda Pharmaceutical Company Limited, priority 2004, dated 2014)
Non-standard residues stand in square brackets, D forms with d. No end group written: not given here. *: point of attachment. d1Nal = N[C@H](Cc1cccc2ccccc12)C(=O)O; d2Nal = N[C@H](Cc1ccc2ccccc2c1)C(=O)O; Arg(Me) = CNC(=N)NCCC[C@H](N)C(=O)O; Lys(Me2) = CN(C)CCCC[C@H](N)C(=O)O; aThr = C[C@H](O)[C@H](N)C(=O)O; Abu = CC[C@H](N)C(=O)O; Dap = NC[C@H](N)C(=O)O; Bz = O=C(c1ccccc1)*; GABA = NCCCC(=O)O; azaGly = NNC(=O)O; For = O=C*

Biological target: T1, hOT7T175 (Homo sapiens, UniProt Q969F8, L364H)
T1 construct: expressed in transfected cells
T1 sequence (Q969F8 whole entry L364H): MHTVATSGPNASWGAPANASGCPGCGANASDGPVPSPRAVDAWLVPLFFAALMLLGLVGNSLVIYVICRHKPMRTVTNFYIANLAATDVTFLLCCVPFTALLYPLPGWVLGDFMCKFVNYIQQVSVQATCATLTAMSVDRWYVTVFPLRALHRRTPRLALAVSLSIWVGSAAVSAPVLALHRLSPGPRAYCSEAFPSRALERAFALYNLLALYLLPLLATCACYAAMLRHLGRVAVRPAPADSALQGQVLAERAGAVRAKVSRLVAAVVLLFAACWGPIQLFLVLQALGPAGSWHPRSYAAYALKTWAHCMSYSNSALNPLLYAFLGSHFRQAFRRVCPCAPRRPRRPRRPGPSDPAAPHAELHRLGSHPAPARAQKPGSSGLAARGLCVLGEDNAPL
Format: cell-based
Settings: hOT7T175/CHO, FLIPR, evaluation for 40 seconds after initiation of the reaction

Ac-[d2Nal][dW]NTF[azaGly]L[Arg(Me)]W-NH2 [Compound No. 620]
Specific Act. (EC50/MS10 EC50): 1.7

Ac-[dY][dW][Dap]SF[azaGly]L[Arg(Me)]W-NH2 [Compound No. 701]
Specific Act. (EC50/MS10 EC50): 1.4

Ac-[dY][dW]NTK[azaGly]L[Arg(Me)]W-NH2 [Compound No. 633]
Specific Act. (EC50/MS10 EC50): 3.4

Ac-[dR][dY][dW]NTF[azaGly]L[Arg(Me)]W-NH2 [Compound No. 568]
Specific Act. (EC50/MS10 EC50): 0.6

Ac-[dY][dW]N[aThr]F[azaGly]L[Arg(Me)]W-NH2 [Compound No. 659]
Specific Act. (EC50/MS10 EC50): 0.6

Ac-[dY][dW]NTE[azaGly]L[Arg(Me)]W-NH2 [Compound No. 634]
Specific Act. (EC50/MS10 EC50): 10.5

D-Tyr-D-Pya(4)-Asn-Pro-Phe-AzaGly-Leu-Arg(Me)-Trp-NH2 [Compound No. 528]
Specific Act. (EC50/MS10 EC50): 1.4

Phenylacetyl-Asn-Ser-Phe-AzaGly-Leu-Arg(Me)-Trp-NH2 [Compound No. 519]
Specific Act. (EC50/MS10 EC50): 2.4

Ac-[d1Nal][dW]NTF[azaGly]L[Arg(Me)]W-NH2 [Compound No. 619]
Specific Act. (EC50/MS10 EC50): 1.5

Amidino-D-Tyr-D-Trp-Asn-Thr-Phe-AzaGly-Leu-Arg(Me)-Trp-NH2 [Compound No. 614]
Specific Act. (EC50/MS10 EC50): 0.8

D-Tyr-D-Pya(4)-Asn-Phg-Phe-AzaGly-Leu-Arg(Me)-Trp-NH2 [Compound No. 530]
Specific Act. (EC50/MS10 EC50): 3.4

Ac-[dY][dW]N[dT]F[azaGly]L[Arg(Me)]W-NH2 [Compound No. 654]
Specific Act. (EC50/MS10 EC50): 2.9

Bz-NTF[azaGly]L[Arg(Me)]W-NH2 [Compound No. 522]
Specific Act. (EC50/MS10 EC50): 1.9

Ac-[dY][dW][dN]TF[azaGly]L[Arg(Me)]W-NH2 [Compound No. 653]
Specific Act. (EC50/MS10 EC50): 1.3

Ac-D-Tyr-D-Trp-Asn-Thr-Phe-AzaGly-γMeLeu-Arg(Me)-Trp-NH2 (Ac-[dY][dW]NTF[azaGly]-{γMeLeu-Arg(Me)-Trp-NH2}) [Compound No. 699]
Specific Act. (EC50/MS10 EC50): 1.3

Ac-[dY][dW]SSF[azaGly]L[Arg(Me)]W-NH2 [Compound No. 577]
Specific Act. (EC50/MS10 EC50): 0.7

Ac-[dY][dW][Dap](For)SF[azaGly]L[Arg(Me)]W-NH2 [Compound No. 585]
Specific Act. (EC50/MS10 EC50): 0.4

Amidino-D-Trp-Asn-Thr-Phe-AzaGly-Leu-Arg(Me)-Trp-NH2 (Amidino-[dW]NTF[azaGly]L[Arg(Me)]W-NH2) [Compound No. 679]
Specific Act. (EC50/MS10 EC50): 1.8

Ac-D-Tyr-D-Pro-Asn-Thr-Phe-AzaGly-Leu-Arg(Me)-Trp-NH2 (Ac-[dY][dP]NTF[azaGly]L[Arg(Me)]W-NH2; SMILES CNC(=N)NCCC[C@H](NC(=O)[C@H](CC(C)C)NC(=O)NNC(=O)[C@H](Cc1ccccc1)NC(=O)[C@@H](NC(=O)[C@H](CC(N)=O)NC(=O)[C@H]1CCCN1C(=O)[C@@H](Cc1ccc(O)cc1)NC(C)=O)[C@@H](C)O)C(=O)N[C@@H](Cc1c[nH]c2ccccc12)C(N)=O) [Compound No. 661]
Specific Act. (EC50/MS10 EC50): 8.5

3-Phenylpropionyl-Asn-Ser-Cha-Gly-Leu-Arg(Me)-Trp-NH2 [Compound No. 518]
Specific Act. (EC50/MS10 EC50): 10.5

Ac-D-Tyr-D-Trp-Asn-Thr-Phe-AzaGly-Leu-Har(Me)-Trp-NH2 [Compound No. 646]
Specific Act. (EC50/MS10 EC50): 1.8

Ac-[dY][dW][Abu]SF[azaGly]L[Arg(Me)]W-NH2 [Compound No. 573]
Specific Act. (EC50/MS10 EC50): 0.7

Ac-[dY][dW]NT[dF][azaGly]L[Arg(Me)]W-NH2 [Compound No. 597]
Specific Act. (EC50/MS10 EC50): 0.6

Ac-[dY][dW]NT[dF]GL[Arg(Me)]W-NH2 [Compound No. 601]
Specific Act. (EC50/MS10 EC50): 3.1

[dR][dR][GABA][dY][dW]NTF[azaGly]L[Arg(Me)]W-NH2 [Compound No. 556]
Specific Act. (EC50/MS10 EC50): 2.8

D-Tyr-D-Pya(4)-Asn-Ser-Phe-AzaGly-Leu-Arg-Phe-NH2 [Compound No. 521]
Specific Act. (EC50/MS10 EC50): 2.4

Arg-Arg-D-Tyr-D-Pya(4)-Asn-Ser-Phe-AzaGly-Leu-Arg(Me)-Trp-NH2 [Compound No. 537]
Specific Act. (EC50/MS10 EC50): 4.7

2-Naphthoyl-Asn-Ser-Phe-AzaGly-Leu-Arg(Me)-Trp-NH2 [Compound No. 535]
Specific Act. (EC50/MS10 EC50): 0.8

Ac-D-Tyr-D-Trp-Asn-Thr-PheΨ(CH2NH)Gly-Leu-Arg(Me)-Trp-NH2 [Compound No. 569]
Specific Act. (EC50/MS10 EC50): 0.5

Ac-[dY][dW]QSF[azaGly]L[Arg(Me)]W-NH2 [Compound No. 576]
Specific Act. (EC50/MS10 EC50): 0.8

D-Arg-Acp-D-Tyr-D-Trp-Asn-Thr-Phe-AzaGly-Leu-Arg(Me)-Trp-NH2 [Compound No. 541]
Specific Act. (EC50/MS10 EC50): 2.0

Ac-D-Tyr-D-Trp-Asn-Thr-Phe-AzaGly-Gln-Arg(Me)-Trp-NH2 (Ac-[dY][dW]NTF[azaGly]Q[Arg(Me)]W-NH2; SMILES CNC(=N)NCCC[C@H](NC(=O)[C@H](CCC(N)=O)NC(=O)NNC(=O)[C@H](Cc1ccccc1)NC(=O)[C@@H](NC(=O)[C@H](CC(N)=O)NC(=O)[C@@H](Cc1c[nH]c2ccccc12)NC(=O)[C@@H](Cc1ccc(O)cc1)NC(C)=O)[C@@H](C)O)C(=O)N[C@@H](Cc1c[nH]c2ccccc12)C(N)=O) [Compound No. 682]
Specific Act. (EC50/MS10 EC50): 7.3

Ac-D-Tyr-D-Trp-Gly-Ser-Phe-AzaGly-Leu-Arg(Me)-Trp-NH2 (Ac-[dY][dW]GSF[azaGly]L[Arg(Me)]W-NH2; SMILES CNC(=N)NCCC[C@H](NC(=O)[C@H](CC(C)C)NC(=O)NNC(=O)[C@H](Cc1ccccc1)NC(=O)[C@H](CO)NC(=O)CNC(=O)[C@@H](Cc1c[nH]c2ccccc12)NC(=O)[C@@H](Cc1ccc(O)cc1)NC(C)=O)C(=O)N[C@@H](Cc1c[nH]c2ccccc12)C(N)=O) [Compound No. 686]
Specific Act. (EC50/MS10 EC50): 0.6

Ac-[dY][dW]NTF[azaGly]L[Lys(Me2)]W-NH2 [Compound No. 610]
Specific Act. (EC50/MS10 EC50): 1.9

Ac-D-Tyr-D-Trp-Asn-Thr-Phe-AzaGly-Leu-Arg(Me)-D-Trp-NH2 (Ac-[dY][dW]NTF[azaGly]L[Arg(Me)][dW]-NH2; SMILES CNC(=N)NCCC[C@H](NC(=O)[C@H](CC(C)C)NC(=O)NNC(=O)[C@H](Cc1ccccc1)NC(=O)[C@@H](NC(=O)[C@H](CC(N)=O)NC(=O)[C@@H](Cc1c[nH]c2ccccc12)NC(=O)[C@@H](Cc1ccc(O)cc1)NC(C)=O)[C@@H](C)O)C(=O)N[C@H](Cc1c[nH]c2ccccc12)C(N)=O) [Compound No. 689]
Specific Act. (EC50/MS10 EC50): 2.3

D-Trp-D-Pya(4)-Asn-Ser-Phe-AzaGly-Leu-Arg(Me)-Trp-NH2 [Compound No. 572]
Specific Act. (EC50/MS10 EC50): 0.7

Ac-D-Tyr-D-Trp-Asn-Thr-Trp-AzaGly-Leu-Arg(Me)-Trp-NH2 (Ac-[dY][dW]NTW[azaGly]L[Arg(Me)]W-NH2; SMILES CNC(=N)NCCC[C@H](NC(=O)[C@H](CC(C)C)NC(=O)NNC(=O)[C@H](Cc1c[nH]c2ccccc12)NC(=O)[C@@H](NC(=O)[C@H](CC(N)=O)NC(=O)[C@@H](Cc1c[nH]c2ccccc12)NC(=O)[C@@H](Cc1ccc(O)cc1)NC(C)=O)[C@@H](C)O)C(=O)N[C@@H](Cc1c[nH]c2ccccc12)C(N)=O) [Compound No. 692]
Specific Act. (EC50/MS10 EC50): 0.7

Ac-D-Tyr-D-Trp-Alb-Ser-Phe-AzaGly-Leu-Arg(Me)-Trp-NH2 [Compound No. 579]
Specific Act. (EC50/MS10 EC50): 0.6

Arg-D-Tyr-D-Pya(4)-Asn-Ser-Phe-AzaGly-Leu-Arg(Me)-Trp-NH2 [Compound No. 536]
Specific Act. (EC50/MS10 EC50): 1.8
